In article PMC10108347, “Heterobifunctional Ligase Recruiters Enable pan-Degradation of Inhibitor of Apoptosis Proteins” (Journal of Medicinal Chemistry, 2023):
Read-outs that look alike come from different tables or passages of the source.

How the values were obtained:
[1] = molecular target: T1, plasma protein (HSA column) (Homo sapiens, UniProt P02768); assay: Plasma protein binding estimated by HPLC on a […] HSA column; format: in vitro ADME; conditions: CHIRALPAK HSA column (50 × 3 mm, 5 μm), estimated by an HPLC-based method, read-out: PPB (plasma protein binding) (converted)
T1 construct: purchased
T1 sequence (P02768 25-609): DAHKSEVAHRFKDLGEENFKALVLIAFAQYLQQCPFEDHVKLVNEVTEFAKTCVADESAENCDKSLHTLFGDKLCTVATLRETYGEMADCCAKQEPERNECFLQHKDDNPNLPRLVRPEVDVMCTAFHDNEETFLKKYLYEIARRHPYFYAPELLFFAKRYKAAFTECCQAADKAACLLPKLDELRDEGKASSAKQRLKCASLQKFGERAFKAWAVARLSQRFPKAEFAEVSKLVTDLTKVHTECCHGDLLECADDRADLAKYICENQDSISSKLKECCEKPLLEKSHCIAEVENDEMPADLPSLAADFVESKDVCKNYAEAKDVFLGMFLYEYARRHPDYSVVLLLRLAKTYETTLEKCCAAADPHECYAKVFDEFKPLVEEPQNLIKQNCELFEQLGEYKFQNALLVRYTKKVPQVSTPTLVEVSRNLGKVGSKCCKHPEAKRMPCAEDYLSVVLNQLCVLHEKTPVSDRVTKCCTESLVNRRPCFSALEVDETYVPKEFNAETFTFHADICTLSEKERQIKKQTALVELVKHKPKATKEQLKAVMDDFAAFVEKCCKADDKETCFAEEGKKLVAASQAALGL
Procedure: Plasma protein binding (% PPB) was estimated by correlating the logarithmic retention times of the analytes on a […] HSA 50 × 3 mm, 5 μm column with the literature-known % PPB values (converted into log K values) of the following drugs: warfarin, ketoprofen, budesonide, nizatidine, indomethacin, acetylsalicylic acid, carbamazepine, piroxicam, nicardipine, and cimetidine (for details, see Valko et al.).[67] The samples were dissolved in MeCN/DMSO 9:1 to achieve a final concentration of 0.5 mg/mL. Mobile phase A was 50 mM ammonium acetate adjusted to pH 7.4 with ammonia solution, while mobile phase B was iPrOH. The flow rate was set to 1.0 mL/min, the UV detector was set to 254 nm, and the column temperature was kept at 30 °C. After injecting 2 μL of the sample, a linear gradient from 100% A to 30% iPrOH in 5.4 min was applied. From 5.4 to 18 min, 30% iPrOH was kept, followed by switching back to 100% A in 1.0 min and a re-equilibration time of 6 min. With the aid of the calibration line (R^2 = 0.96), the log K values of new substances were calculated and converted to their % PPB values.

[2] = Log D7.4 measurement by chromatographic (fast-gradient HPLC) method; conditions: for chromatographic logD: pH 7.4
Procedure: The system was calibrated by plotting the retention times of six different drugs (atenolol, metoprolol, labetalol, diltiazem, triphenylene, and permethrin) versus their literature-known log D7.4 in a calibration line (R^2 = 0.99). Subsequently, the mean retention times of the analytes were taken to calculate their log D7.4 values with the aid of the calibration line. At least two independent measurements of each analyte were performed.

XIAP = XIAP (Homo sapiens, UniProt P98170); assay: Immunoblotting (western blot) quantification of XIAP levels in MM.1S cells; conditions: for remaining activity at 0.1 µM: MM1.S, 16 h
XIAP, sequence (P98170 whole entry): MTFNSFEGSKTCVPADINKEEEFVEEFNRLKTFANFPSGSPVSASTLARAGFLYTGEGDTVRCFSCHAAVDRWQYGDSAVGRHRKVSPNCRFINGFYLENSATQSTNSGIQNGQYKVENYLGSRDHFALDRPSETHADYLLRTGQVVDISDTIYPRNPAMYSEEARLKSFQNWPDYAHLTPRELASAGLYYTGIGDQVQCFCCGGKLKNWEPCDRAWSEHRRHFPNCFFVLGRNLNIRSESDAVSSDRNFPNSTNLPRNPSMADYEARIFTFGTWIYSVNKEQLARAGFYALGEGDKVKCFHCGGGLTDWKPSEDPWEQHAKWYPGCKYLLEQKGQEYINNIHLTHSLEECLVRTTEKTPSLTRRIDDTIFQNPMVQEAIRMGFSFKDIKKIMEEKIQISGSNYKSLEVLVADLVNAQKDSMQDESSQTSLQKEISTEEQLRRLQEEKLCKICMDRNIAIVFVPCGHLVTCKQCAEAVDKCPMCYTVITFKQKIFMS
Procedure: (§1) To evaluate the capability of our panel of hetero-PROTACs for E3 ligase degradation, VHL19, VHL30, CRBN, cIAP1, cIAP2, and XIAP levels were quantified by western blot analyses. […] SDS-PAGE was performed, and proteins were then transferred onto PVDF membranes. Blotted membranes were blocked with 5% milk in Tris-buffered saline/Tween20 (TBST). Primary antibodies were diluted in 5% BSA in TBST, and incubations were performed overnight at 4 °C. Secondary HRP-conjugated antibodies diluted in 5% milk were incubated for 1 h at room temperature. Detection of proteins on PVDF was carried out using the WesternBright ECL HRP substrate or the WesternBright Sirius HRP substrate (Advansta, San Jose, USA) and imaged with LAS 4000× (Fujifilm). Membranes were subjected to 10 min incubation with Restore Western Blot Stripping Buffer (Thermo Fisher Scientific, Waltham, USA), followed by TBST washes. After brief re-activation with methanol, the membranes were blocked, and further probing of proteins was carried out.
(§2) Quantification of blots was performed using ImageJ software (National Institutes of Health).

CRBN = CRBN (Homo sapiens, UniProt Q96SW2); assay: Immunoblotting (western blot) quantification of CRBN levels in MM.1S cells; conditions: for remaining activity at 0.1 µM: MM1.S, 16 h, read-out: %remaining protein CRBN
CRBN, sequence (Q96SW2 whole entry): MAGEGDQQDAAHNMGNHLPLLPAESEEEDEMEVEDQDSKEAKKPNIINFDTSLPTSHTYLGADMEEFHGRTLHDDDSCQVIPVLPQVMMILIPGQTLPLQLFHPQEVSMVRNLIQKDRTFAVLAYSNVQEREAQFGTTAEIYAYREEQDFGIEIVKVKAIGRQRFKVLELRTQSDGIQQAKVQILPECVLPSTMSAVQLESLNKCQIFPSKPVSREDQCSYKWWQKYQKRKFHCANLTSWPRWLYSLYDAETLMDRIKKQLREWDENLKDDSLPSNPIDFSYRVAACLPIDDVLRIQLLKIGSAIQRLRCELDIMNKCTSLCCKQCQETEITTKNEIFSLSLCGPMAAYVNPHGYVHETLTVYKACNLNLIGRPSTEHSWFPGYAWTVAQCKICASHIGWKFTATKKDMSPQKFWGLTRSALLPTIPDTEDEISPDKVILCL
Procedure: as §1, §2

cIAP1 = cIAP1 (Homo sapiens, UniProt Q13490); assay: Immunoblotting (western blot) quantification of cIAP1 levels in MM.1S cells; conditions: for remaining activity at 0.1 µM: MM1.S, 16 h
cIAP1, sequence (Q13490 whole entry): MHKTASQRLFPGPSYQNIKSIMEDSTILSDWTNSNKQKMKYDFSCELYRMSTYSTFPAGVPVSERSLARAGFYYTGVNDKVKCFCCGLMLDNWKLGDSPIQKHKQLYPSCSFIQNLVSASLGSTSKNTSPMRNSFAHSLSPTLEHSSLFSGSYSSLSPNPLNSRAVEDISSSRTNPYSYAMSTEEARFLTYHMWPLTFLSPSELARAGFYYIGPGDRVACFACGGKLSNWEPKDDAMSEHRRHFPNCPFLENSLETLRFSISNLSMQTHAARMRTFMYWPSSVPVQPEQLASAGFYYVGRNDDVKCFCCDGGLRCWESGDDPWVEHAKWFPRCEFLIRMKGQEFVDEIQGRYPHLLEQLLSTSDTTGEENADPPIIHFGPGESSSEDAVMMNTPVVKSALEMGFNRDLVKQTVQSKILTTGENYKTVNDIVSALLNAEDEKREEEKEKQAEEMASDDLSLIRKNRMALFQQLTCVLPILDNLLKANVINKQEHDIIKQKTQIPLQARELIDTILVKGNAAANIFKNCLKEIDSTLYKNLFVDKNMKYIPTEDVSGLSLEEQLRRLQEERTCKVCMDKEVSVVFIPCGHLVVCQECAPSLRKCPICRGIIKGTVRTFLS
Procedure: as §1, §2

cIAP2 = cIAP2 (Homo sapiens, UniProt Q13489); assay: Immunoblotting (western blot) quantification of cIAP2 levels in MM.1S cells; conditions: for remaining activity at 0.1 µM: MM1.S
cIAP2, sequence (Q13489 whole entry): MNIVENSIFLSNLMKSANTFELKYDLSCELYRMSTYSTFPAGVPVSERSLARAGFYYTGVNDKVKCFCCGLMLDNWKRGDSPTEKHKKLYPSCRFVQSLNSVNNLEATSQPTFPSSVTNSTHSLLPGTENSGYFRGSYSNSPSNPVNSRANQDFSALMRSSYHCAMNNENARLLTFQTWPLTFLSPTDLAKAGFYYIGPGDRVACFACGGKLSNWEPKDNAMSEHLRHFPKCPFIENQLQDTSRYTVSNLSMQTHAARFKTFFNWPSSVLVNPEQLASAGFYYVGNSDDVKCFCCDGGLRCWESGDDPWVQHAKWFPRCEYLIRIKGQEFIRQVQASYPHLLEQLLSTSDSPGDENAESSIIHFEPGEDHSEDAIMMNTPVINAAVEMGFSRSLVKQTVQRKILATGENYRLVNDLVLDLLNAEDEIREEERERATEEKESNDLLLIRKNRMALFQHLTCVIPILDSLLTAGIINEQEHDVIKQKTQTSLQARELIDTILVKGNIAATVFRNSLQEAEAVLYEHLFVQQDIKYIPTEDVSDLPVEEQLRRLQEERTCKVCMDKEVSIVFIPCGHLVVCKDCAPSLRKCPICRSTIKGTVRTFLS

IKZF3 = assay: Immunoblotting (western blot) quantification of IKZF3 levels in MM.1S cells; conditions: for %remaining protein IKZF3: 16 h treatment at 0.1 μM, normalized to loading control and DMSO
Procedure: as §1, §2

VHL30 = VHL30 (Homo sapiens, UniProt P40337); assay: Immunoblotting (western blot) quantification of VHL30 levels in MM.1S cells; conditions: MM1.S, 16 h, read-out: %remaining protein VHL30
VHL30, sequence (P40337 whole entry): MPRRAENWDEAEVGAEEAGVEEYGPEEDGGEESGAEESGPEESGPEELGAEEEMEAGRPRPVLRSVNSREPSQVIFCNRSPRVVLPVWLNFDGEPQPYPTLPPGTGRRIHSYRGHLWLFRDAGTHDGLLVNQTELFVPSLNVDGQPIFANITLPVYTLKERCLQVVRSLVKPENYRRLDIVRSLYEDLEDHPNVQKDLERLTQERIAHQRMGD
Procedure: as §1, §2

[3] = test system: IAPs (cIAP1, cIAP2, XIAP); assay: Immunoblotting of IAPs in MM.1S cells, overall degradation profile, time course and washout; format: cell-based; conditions: 16 h, western blot, concentration (10 nM to 1 μM)
Procedure: Next, we examined the persistence of IAP degradation in MM.1S cells after a single exposure to 1 μM of 9 and subsequent removal of the compound. […] The reliance on CRL2^VHL was assessed with a neddylation inhibitor MLN4924, which blocks the activity of CRLs (Figure S13A).

[4] = read-out: %remaining protein XIAP, MM.1S cells, 16 h treatment at 0.1 μM, normalized to loading control and DMSO
[5] = read-out: %remaining protein cIAP1, MM.1S cells, 16 h treatment at 0.1 μM, normalized to loading control and DMSO
[6] = 16 h, read-out: %remaining protein cIAP2, MM.1S cells, 16 h treatment at 0.1 μM, normalized to loading control and DMSO
[7] = MM.1S cells, 16 h treatment at 0.1 μM, normalized to loading control and DMSO
[8] = read-out: %remaining protein XIAP
[9] = read-out: %remaining protein cIAP1
[10] = 16 h, read-out: %remaining protein cIAP2

fraction unbound at 0.5 mg/mL [1]	remaining activity at 0.1 µM (XIAP; [4]) [%]	remaining activity at 0.1 µM (CRBN) [%]	remaining activity at 0.1 µM (cIAP1; [5]) [%]	remaining activity at 0.1 µM (cIAP2; [6]) [%]	Molecule	chromatographic logD [2]	%remaining protein IKZF3 (IKZF3) [%]	remaining activity at 0.1 µM (XIAP; [8]) [%]	remaining activity at 0.1 µM (cIAP1; [9]) [%]	remaining activity at 0.1 µM (cIAP2; [10]) [%]	remaining activity at 0.1 µM (VHL30) [%]	other results
0.06	2	86	4	8	CN[C@@H](C)C(=O)N[C@H](C(=O)N1C[C@@H](Oc2cccc(OCCOCCOCCOCCNc3cccc4c3C(=O)N(C3CCC(=O)NC3=O)C4=O)c2)C[C@H]1C(=O)N[C@@H]1CCCc2ccccc21)C1CCCCC1 (stereo partly drawn) [PROTAC 24, (2S,4S)-1-((S)-2-Cyclohexyl-2-((S)-2-(methylamino)propanamido)acetyl)-4-(3-(2-(2-(2-(2-((2-(2,6-dioxopiperidin-3-yl)-1,3-dioxoisoindolin-4-yl)amino)ethoxy)ethoxy)ethoxy)ethoxy)phenoxy)-N-((R)-1,2,3,4-tetrahydronaphthalen-1-yl)pyrrolidine-2-carboxamide]	3.9	95	–	–	–	–	–
0.05	3	85	4	11	CN[C@@H](C)C(=O)N[C@H](C(=O)N1C[C@@H](Oc2cccc(OCCOCCOCCNc3cccc4c3C(=O)N(C3CCC(=O)NC3=O)C4=O)c2)C[C@H]1C(=O)N[C@@H]1CCCc2ccccc21)C1CCCCC1 (stereo partly drawn) [PROTAC 23, (2S,4S)-1-((S)-2-Cyclohexyl-2-((S)-2-(methylamino)propanamido)acetyl)-4-(3-(2-(2-(2-((2-(2,6-dioxopiperidin-3-yl)-1,3-dioxoisoindolin-4-yl)amino)ethoxy)ethoxy)ethoxy)phenoxy)-N-((R)-1,2,3,4-tetrahydronaphthalen-1-yl)pyrrolidine-2-carboxamide]	3.9	95	–	–	–	–	–
–	–	–	–	–	(2S,4S)-1-((S)-2-Cyclohexyl-2-((S)-2-(methylamino)propanamido)acetyl)-4-(3-((8-((2-(2,6-dioxopiperidin-3-yl)-1,3-dioxoisoindolin-4-yl)amino)octyl)oxy)phenoxy)-N-((R)-1,2,3,4-tetrahydronaphthalen-1-yl)pyrrolidine-2-carboxamide [PROTAC 21]	–	95	–	–	–	–	logD (experimental partition coefficient, elog D7.4) ([2]; pH 7.4, fast-gradient HPLC method): 5.7; %remaining protein XIAP (XIAP; [7]): 4%; %remaining protein CRBN (CRBN; [7]): 90%; %remaining protein cIAP1 (cIAP1; [7]): 5%; %remaining protein cIAP2 (cIAP2; [7]): 14%
0.04	8	95	6	34	CN[C@@H](C)C(=O)N[C@H](C(=O)N1C[C@@H](Oc2cccc(OCCCCCNc3cccc4c3C(=O)N(C3CCC(=O)NC3=O)C4=O)c2)C[C@H]1C(=O)N[C@@H]1CCCc2ccccc21)C1CCCCC1 (stereo partly drawn) [PROTAC 20, (2S,4S)-1-((S)-2-Cyclohexyl-2-((S)-2-(methylamino)propanamido)acetyl)-4-(3-((5-((2-(2,6-dioxopiperidin-3-yl)-1,3-dioxoisoindolin-4-yl)amino)pentyl)oxy)phenoxy)-N-((R)-1,2,3,4-tetrahydronaphthalen-1-yl)pyrrolidine-2-carboxamide]	4.6	89	–	–	–	–	–
0.05	–	–	–	–	CC[C@H](NC(=O)[C@H](C)NC)C(=O)N1C[C@@H](O)C[C@H]1Cc1c(-c2[nH]c3cc(F)ccc3c2C[C@@H]2C[C@H](O)CN2C(=O)[C@H](CC)NC(=O)[C@H](C)NC)[nH]c2cc(F)ccc12 [birinapant, reference compound]	3.4	–	–	–	–	–	IAP degradation profile (in words) [3]: potent cIAP autodegradation; cIAP2 degradation (in words) (cIAP2; MM.1S cells, 16 h, western blot, 0.1 or 1 μM): substantial degradation

Molecule	fraction unbound at 0.5 mg/mL [1]	remaining activity at 0.1 µM (XIAP; [4]) [%]	remaining activity at 0.1 µM (CRBN) [%]	remaining activity at 0.1 µM (cIAP1; [5]) [%]	remaining activity at 0.1 µM (cIAP2; [6]) [%]	chromatographic logD [2]	%remaining protein IKZF3 (IKZF3) [%]	remaining activity at 0.1 µM (XIAP; [8]) [%]	remaining activity at 0.1 µM (cIAP1; [9]) [%]	remaining activity at 0.1 µM (cIAP2; [10]) [%]	remaining activity at 0.1 µM (VHL30) [%]	other results
CN[C@@H](C)C(=O)N[C@H](C(=O)N1C[C@@H](Oc2cccc(OCCCCOCCCCOc3cc(-c4scnc4C)ccc3CNC(=O)[C@@H]3C[C@@H](O)CN3C(=O)[C@H](C(C)C)N3Cc4ccccc4C3=O)c2)C[C@H]1C(=O)N[C@@H]1CCCc2ccccc21)C1CCCCC1 [PROTAC 14, (2S,4S)-1-((S)-2-Cyclohexyl-2-((S)-2-(methylamino)propanamido)acetyl)-4-(3-(4-(4-(2-(((2S,4R)-4-hydroxy-1-((S)-3-methyl-2-(1-oxoisoindolin-2-yl)butanoyl)pyrrolidine-2-carboxamido)methyl)-5-(4-methylthiazol-5-yl)phenoxy)butoxy)butoxy)phenoxy)-N-((R)-1,2,3,4-tetrahydronaphthalen-1-yl)pyrrolidine-2-carboxamide]	0.04	–	–	–	–	4.2	–	3	2	15	39	–
CN[C@@H](C)C(=O)N[C@H](C(=O)N1C[C@@H](Oc2cccc(OCCCCCCOCCCCCCOCCOc3cc(-c4scnc4C)ccc3CNC(=O)[C@@H]3C[C@@H](O)CN3C(=O)[C@H](C(C)C)N3Cc4ccccc4C3=O)c2)C[C@H]1C(=O)N[C@@H]1CCCc2ccccc21)C1CCCCC1 [PROTAC 17, (2S,4S)-1-((S)-2-Cyclohexyl-2-((S)-2-(methylamino)propanamido)acetyl)-4-(3-((6-((6-(2-(2-(((2S,4R)-4-hydroxy-1-((S)-3-methyl-2-(1-oxoisoindolin-2-yl)butanoyl)pyrrolidine-2-carboxamido)methyl)-5-(4-methylthiazol-5-yl)phenoxy)ethoxy)hexyl)oxy)hexyl)oxy)phenoxy)-N-((R)-1,2,3,4-tetrahydronaphthalen-1-yl)pyrrolidine-2-carboxamide]	0.03	–	–	–	–	5.2	–	1	3	31	81	–
CN[C@@H](C)C(=O)N[C@H](C(=O)N1C[C@@H](Oc2cccc(OCCOCCOCCOc3cc(-c4scnc4C)ccc3CNC(=O)[C@@H]3C[C@@H](O)CN3C(=O)[C@H](C(C)C)N3Cc4ccccc4C3=O)c2)C[C@H]1C(=O)N[C@@H]1CCCc2ccccc21)C1CCCCC1 [PROTAC 15, (2S,4S)-1-((S)-2-Cyclohexyl-2-((S)-2-(methylamino)propanamido)acetyl)-4-(3-(2-(2-(2-(2-(((2S,4R)-4-hydroxy-1-((S)-3-methyl-2-(1-oxoisoindolin-2-yl)butanoyl)pyrrolidine-2-carboxamido)methyl)-5-(4-methylthiazol-5-yl)phenoxy)ethoxy)ethoxy)ethoxy)phenoxy)-N-((R)-1,2,3,4-tetrahydronaphthalen-1-yl)pyrrolidine-2-carboxamide]	0.05	–	–	–	–	3.4	–	3	3	32	51	–
CN[C@@H](C)C(=O)N[C@H](C(=O)N1C[C@@H](Oc2cccc(OCCCCCOCCCCCOCCCCCCNc3cccc4c3C(=O)N(C3CCC(=O)NC3=O)C4=O)c2)C[C@H]1C(=O)N[C@@H]1CCCc2ccccc21)C1CCCCC1 (stereo partly drawn) [PROTAC 26, (2S,4S)-1-((S)-2-Cyclohexyl-2-((S)-2-(methylamino)propanamido)acetyl)-4-(3-((5-((5-((6-((2-(2,6-dioxopiperidin-3-yl)-1,3-dioxoisoindolin-4-yl)amino)hexyl)oxy)pentyl)oxy)pentyl)oxy)phenoxy)-N-((R)-1,2,3,4-tetrahydronaphthalen-1-yl)pyrrolidine-2-carboxamide]	–	–	95	–	–	6.5	90	2	10	16	–	IAP degradation profile (in words) [3]: pronounced pan-IAP depletion; IKZF3 degradation (in words) (IKZF3; 16 h, 1 μM): substantial IKZF3 degradation at 1 μM
